In patent US20220323446A1 (Amgen Inc., priority 2021, published 2022):

Tests used:
[1] = test system: phosphorylation of extracellular signal-regulated kinase (ERK); details: preclinical studies; cited from earlier work
[2] = target: T1, OATP1B1 (Homo sapiens, UniProt Q9Y6L6); experiment: Phase 1 interaction study, sotorasib with single dose of rifampin; assay type: in vivo
T1 construct: from tissue
T1 sequence (Q9Y6L6 1-691): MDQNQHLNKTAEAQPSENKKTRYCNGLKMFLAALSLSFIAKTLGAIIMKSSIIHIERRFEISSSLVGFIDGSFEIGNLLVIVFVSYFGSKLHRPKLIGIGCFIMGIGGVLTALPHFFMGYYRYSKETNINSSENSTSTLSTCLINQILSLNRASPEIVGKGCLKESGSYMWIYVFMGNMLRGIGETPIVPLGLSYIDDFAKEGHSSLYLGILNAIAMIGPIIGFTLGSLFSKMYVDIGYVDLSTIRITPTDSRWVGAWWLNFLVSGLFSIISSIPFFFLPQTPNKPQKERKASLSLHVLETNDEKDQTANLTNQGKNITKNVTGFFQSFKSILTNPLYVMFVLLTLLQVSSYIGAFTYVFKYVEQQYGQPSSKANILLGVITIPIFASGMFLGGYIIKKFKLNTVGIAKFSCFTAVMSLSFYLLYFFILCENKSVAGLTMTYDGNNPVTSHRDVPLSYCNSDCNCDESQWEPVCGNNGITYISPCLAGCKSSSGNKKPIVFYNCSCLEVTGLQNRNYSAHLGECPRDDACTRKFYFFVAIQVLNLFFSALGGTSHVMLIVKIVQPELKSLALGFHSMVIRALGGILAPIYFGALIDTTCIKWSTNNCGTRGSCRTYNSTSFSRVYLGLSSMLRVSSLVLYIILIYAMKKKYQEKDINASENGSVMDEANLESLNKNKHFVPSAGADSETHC

[3] = Dose comparison study 960 mg QD vs 240 mg QD, pharmacokinetics; details: for AUC0-24h: GeoMean
[4] = test system: NSCLC adenocarcinoma (stage IV); experiment: Dose comparison study, tumor response (RECIST 1.1) at 240 mg once daily; assay type: in vivo, human
Protocol: The extent of disease is evaluated by contrast-enhanced MRI/CT according to RECIST 1.1, as described below. In order to reduce radiation exposure for subjects, low dose CT should be utilized whenever possible.

[5] = clinical; details: human, in vivo, oral
[6] = target: T2, CYP3A4 (Homo sapiens, UniProt P08684); experiment: Phase 1 interaction study, sotorasib with multiple doses of rifampin (strong CYP3A4 inducer); assay type: in vivo; set-up: from tissue; host or cells: in vivo, healthy human subjects (liver or gut enzyme)
[7] = Common adverse events during Phase 2 Study; assay type: in vivo, human
[8] = Phase 1 interaction study, sotorasib with famotidine or omeprazole, fed conditions; assay type: in vivo, human
Protocol: Safety and tolerability monitoring was performed throughout the study.

[9] = Phase 1 interaction study, sotorasib with omeprazole, fasted conditions; assay type: in vivo, human
[10] = Sotorasib dose reduction and discontinuation (safety analysis set); details: for Discontinuation reason: Adverse event / Discontinuation reason: Death / Discontinuation reason: Disease progression / Subjects who discontinued sotorasib: subjects with any dose reduction;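 for all read-outs here: counts of patients in the safety analysis set, where lowering the dose was allowed upon certain adverse events such as hepatotoxicity, nausea or vomiting and diarrhea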
[11] = target: T3, P-gp (Homo sapiens, UniProt P08183)
Protocol: (§1) Blood samples for digoxin PK were collected predose and up to 144 hours post-digoxin dose. Samples were measured using validated high-performance liquid chromatography tandem mass spectrometry methods. PK parameters were estimated using non-compartmental methods.

[12] = target: T3, P-gp; experiment: clinical; details: plasma, 0.5 mg
Protocol: as §1

[13] = target: T2, CYP3A4; experiment: Phase 1 interaction study, midazolam (CYP3A4 substrate) with sotorasib; details: 2 mg midazolam with 960 mg sotorasib after 14 days daily sotorasib vs midazolam alone
[14] = famotidine 10 hours prior to and 2 hours after sotorasib
[15] = with omeprazole vs sotorasib alone, fasted state
[16] = 427 subjects, sotorasib monotherapy, any tumor type and any dose
[17] = Any tumor types 180 mg QD fasted (n = 6)
[18] = Any tumor types 360 mg QD fasted (n = 27)
[19] = Any tumor types 480 mg BID fed (n = 26)
[20] = Any tumor types 720 mg QD fasted (n = 11)
[21] = Any tumor types 960 mg QD fasted (n = 339)
[22] = Any tumor types 960 mg QD fed (n = 18)
[23] = Total any tumor types and any dose (n = 427)
[24] = of the 56 subjects who had a dose reduction
[25] = Total any tumor types and any dose (N = 56)
[26] = 0.5 mg digoxin, 960 mg sotorasib
[27] = with a single dose of sotorasib vs digoxin alone

T3 sequence (P08183 whole entry): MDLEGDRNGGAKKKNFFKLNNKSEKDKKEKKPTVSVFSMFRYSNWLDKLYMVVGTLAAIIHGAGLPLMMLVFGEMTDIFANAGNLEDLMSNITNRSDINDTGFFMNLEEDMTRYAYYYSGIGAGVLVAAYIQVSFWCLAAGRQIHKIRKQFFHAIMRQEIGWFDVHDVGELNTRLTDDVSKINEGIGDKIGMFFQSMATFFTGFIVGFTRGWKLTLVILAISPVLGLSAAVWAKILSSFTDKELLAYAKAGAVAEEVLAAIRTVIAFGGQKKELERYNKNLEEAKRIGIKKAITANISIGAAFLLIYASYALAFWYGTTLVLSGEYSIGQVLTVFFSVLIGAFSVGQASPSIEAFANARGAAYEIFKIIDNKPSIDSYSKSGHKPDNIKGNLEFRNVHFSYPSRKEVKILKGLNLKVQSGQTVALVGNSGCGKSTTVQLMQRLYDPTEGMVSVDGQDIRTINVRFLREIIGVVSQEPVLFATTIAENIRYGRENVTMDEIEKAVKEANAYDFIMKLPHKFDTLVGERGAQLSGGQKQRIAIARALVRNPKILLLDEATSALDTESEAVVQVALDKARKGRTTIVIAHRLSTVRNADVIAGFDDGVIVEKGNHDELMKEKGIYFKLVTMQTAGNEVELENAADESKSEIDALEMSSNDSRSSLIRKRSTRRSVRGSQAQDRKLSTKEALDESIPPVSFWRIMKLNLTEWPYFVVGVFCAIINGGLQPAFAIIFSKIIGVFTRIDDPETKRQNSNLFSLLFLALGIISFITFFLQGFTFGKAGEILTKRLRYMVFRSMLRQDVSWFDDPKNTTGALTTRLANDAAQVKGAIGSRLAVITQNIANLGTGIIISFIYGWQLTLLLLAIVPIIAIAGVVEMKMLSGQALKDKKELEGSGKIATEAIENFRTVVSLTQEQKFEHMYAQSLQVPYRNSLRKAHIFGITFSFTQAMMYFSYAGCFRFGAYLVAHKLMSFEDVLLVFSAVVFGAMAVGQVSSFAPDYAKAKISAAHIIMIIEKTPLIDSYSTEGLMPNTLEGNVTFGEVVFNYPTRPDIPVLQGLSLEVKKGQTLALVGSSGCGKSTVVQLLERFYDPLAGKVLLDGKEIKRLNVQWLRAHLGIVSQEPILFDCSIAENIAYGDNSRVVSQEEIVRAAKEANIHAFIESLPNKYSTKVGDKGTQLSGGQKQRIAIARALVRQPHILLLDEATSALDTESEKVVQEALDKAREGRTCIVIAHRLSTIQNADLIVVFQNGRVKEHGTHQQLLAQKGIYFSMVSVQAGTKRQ
T2 sequence (P08684 whole entry): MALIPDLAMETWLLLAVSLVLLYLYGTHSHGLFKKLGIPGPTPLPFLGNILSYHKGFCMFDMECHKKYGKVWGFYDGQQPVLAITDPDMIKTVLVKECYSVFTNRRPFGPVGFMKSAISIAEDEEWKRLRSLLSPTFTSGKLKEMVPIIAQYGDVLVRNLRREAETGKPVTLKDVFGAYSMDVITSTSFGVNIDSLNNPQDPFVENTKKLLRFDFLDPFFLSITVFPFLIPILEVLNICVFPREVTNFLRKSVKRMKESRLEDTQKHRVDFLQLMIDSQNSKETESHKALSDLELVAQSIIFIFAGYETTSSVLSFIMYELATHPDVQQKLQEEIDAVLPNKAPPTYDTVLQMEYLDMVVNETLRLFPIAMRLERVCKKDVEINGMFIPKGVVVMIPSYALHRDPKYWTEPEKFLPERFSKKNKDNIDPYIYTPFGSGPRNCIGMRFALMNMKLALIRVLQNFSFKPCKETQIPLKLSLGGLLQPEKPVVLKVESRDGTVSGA

C=CC(=O)N1CCN(c2nc(=O)n(-c3c(C)ccnc3C(C)C)c3nc(-c4c(O)cccc4F)c(F)cc23)[C@@H](C)C1 (atropisomer, axis not shown; (M)) [sotorasib, 6-fluoro-7-(2-fluoro-6-hydroxyphenyl)-(1M)-1-[4-methyl-2-(propan-2-yl)pyridin-3-yl]-4-[(2S)-2-methyl-4-(prop-2-enoyl)piperazin-1-yl]pyrido[2,3-d]pyrimidin-2(1H)-one]
phosphorylation of ERK [1]: inhibited nearly all detectable phosphorylation | OATP1B1 substrate status ([2]; concluded from single dose rifampin): not a substrate of OATP1B1 | effect of single dose of rifampin on sotorasib PK ([2]; single dose rifampin): did not have a clinically meaningful effect | Tmax ([3]; 240 mg, Day 1, Median): 1.0 h | AUC0-24h ([3]; 240 mg, Day 8): 36300 ng·h/mL | AUC0-24h ([3]; 960 mg, Day 1): 85000 ng·h/mL | mean exposures (Cmax and AUC0-24h) following 960 mg compared to 240 mg ([3]; Day 1 and Day 8): numerically higher | Exposures on Day 8 lower than on Day 1 ([3]; both 240 mg and 960 dosing): 30-40% | tumor response ([4]; one patient, after cycle 3 and 5): stable disease (SD) | tumor response ([4]; other patient, after cycle 9): progression disease (PD) | tumor response ([4]; other patient, after cycles 3, 5, and 7): partial response (PR) | tumor response ([4]; same patient, after cycles 7 and 9): partial response (PR) | Tmax ([5]; 240 mg): 4 h | Tmax ([5]; 960 mg): 4 h | Geometric mean sotorasib AUOnf ([6]; 960 mg sotorasib with multiple doses of rifampin 600 mg): 12400 ng·h/mL | safety and tolerability ([6]; coadministered with 600 mg rifampin or alone, healthy subjects): safe and well tolerated | CYP3A4 substrate status ([6]; concluded from multiple doses of rifampin): is a CYP3A4 substrate | AUC(0-inf) ([6]; human, plasma, 960 mg): 25600 ng·h/mL | Cmax ([6]; human, plasma, 960 mg): 6350 ng/mL | decrease of sotorasib AUOnf ([6]; multiple doses of rifampin): 51% | decrease of sotorasib Cmax ([6]; multiple doses of rifampin): 35% | Abdominal pain, ALL GRADES [7]: 15% | Abdominal pain, GRADE 3 TO 4 [7]: 1.0% | Arthalgia, ALL GRADES [7]: 12% | Arthalgia, GRADE 3 TO 4 [7]: 1.0% | Constipation, ALL GRADES [7]: 16% | Constipation, GRADE 3 TO 4 [7]: 0.5% | Cough, ALL GRADES [7]: 20% | Cough, GRADE 3 TO 4 [7]: 1.5% | Decreased appetite, ALL GRADES [7]: 13% | Decreased appetite, GRADE 3 TO 4 [7]: 1.0% | Diarrhea, ALL GRADES [7]: 42% | Diarrhea, GRADE 3 TO 4 [7]: 5% | Dyspnea, ALL GRADES [7]: 16% | Dyspnea, GRADE 3 TO 4 [7]: 2.9% | Fatigue, ALL GRADES [7]: 25% | Fatigue, GRADE 3 TO 4 [7]: 2.0% | Headache, ALL GRADES [7]: 10% | Headache, GRADE 3 TO 4 [7]: 0% | Hepatotoxicity, ALL GRADES [7]: 25% | Hepatotoxicity, GRADE 3 TO 4 [7]: 12% | Musculoskeletal pain, ALL GRADES [7]: 35% | Musculoskeletal pain, GRADE 3 TO 4 [7]: 2.0% | Nausea, ALL GRADES [7]: 26% | Nausea, GRADE 3 TO 4 [7]: 1.0% | Pneumonia, ALL GRADES [7]: 12% | Pneumonia, GRADE 3 TO 4 [7]: 7% | Rash, ALL GRADES [7]: 12% | Rash, GRADE 3 TO 4 [7]: 0% | Vomiting, ALL GRADES [7]: 17% | Vomiting, GRADE 3 TO 4 [7]: 1.5% | safety and tolerability ([8]; 960 mg with 40 mg famotidine single dose or 40 mg omeprazole multiple daily dosing, healthy subjects): safe and well tolerated | decrease of sotorasib AUC [8, 14]: 38% | decrease of sotorasib Cmax [8, 14]: 35% | decrease of sotorasib AUC ([8]; repeat doses of omeprazole): 57% | decrease of sotorasib Cmax ([8]; repeat doses of omeprazole): 65% | sotorasib time to maximal plasma concentration (Lx) delayed by ([9]; 960 mg sotorasib with 40 mg omeprazole vs alone, fasted, healthy subjects): 0.75 h | Mean terminal half-life (ty2) of sotorasib with omeprazole compared to alone ([9]; 960 mg sotorasib, 40 mg omeprazole, fasted): similar | safety and tolerability ([9]; coadministered with 40 mg omeprazole or alone, healthy subjects): safe and well tolerated | AUC(0-inf) ([9]; human, plasma, 960 mg): 29300 ng·h/mL | decrease of sotorasib AUCinf [9, 15]: 42% | decrease of sotorasib Cmax [9, 15]: 57% | subjects with a dose reduction [10, 16]: 13.1% | subjects with dose reduction due to adverse events (AEs) [10, 16]: 10.8% | Number of subjects with any dose reduction [10, 17]: 0 (0.0) n (%) | Primary reason for dose reduction: Adverse event [10, 17]: 0 (0.0) n (%) | Number of subjects with any dose reduction [10, 18]: 3 (11.1) n (%) | Primary reason for dose reduction: Adverse event [10, 18]: 3 (11.1) n (%) | Number of subjects with any dose reduction [10, 19]: 3 (11.5) n (%) | Primary reason for dose reduction: Adverse event [10, 19]: 2 (7.7) n (%) | Number of subjects with any dose reduction [10, 20]: 2 (18.2) n (%) | Primary reason for dose reduction: Adverse event [10, 20]: 1 (9.1) n (%) | Number of subjects with any dose reduction [10, 21]: 36 (13.6) n (%) | Primary reason for dose reduction: Adverse event [10, 21]: 38 (11.2) n (%) | Number of subjects with any dose reduction [10, 22]: 2 (11.1) n (%) | Primary reason for dose reduction: Adverse event [10, 22]: 2 (11.1) n (%) | Number of subjects with any dose reduction [10, 23]: 56 (13.1) n (%) | Primary reason for dose reduction: Adverse event [10, 23]: 46 (10.8) n (%) | subjects who discontinued due to progression of disease [10, 24]: 44.6% | subjects who discontinued treatment with sotorasib [10, 24]: 69.6% | subjects whose reason to discontinue was due to AEs [10, 24]: 21.4% | Discontinuation reason: Adverse event ([10]; 180 mg QD fasted (N = 0)): 0 (0.0) n (%) | Discontinuation reason: Death ([10]; 180 mg QD fasted (N = 0)): 0 (0.0) n (%) | Discontinuation reason: Disease progression ([10]; 180 mg QD fasted (N = 0)): 0 (0.0) n (%) | Subjects who discontinued sotorasib ([10]; 180 mg QD fasted (N = 0)): 0 (−) n (%) | Discontinuation reason: Adverse event ([10]; 360 mg QD fasted (N = 3)): 0 (0.0) n (%) | Discontinuation reason: Death ([10]; 360 mg QD fasted (N = 3)): 0 (0.0) n (%) | Discontinuation reason: Disease progression ([10]; 360 mg QD fasted (N = 3)): 2 (66.7) n (%) | Subjects who discontinued sotorasib ([10]; 360 mg QD fasted (N = 3)): 2 (66.7) n (%) | Discontinuation reason: Adverse event ([10]; 480 mg BID fed (N = 3)): 2 (66.7) n (%) | Discontinuation reason: Death ([10]; 480 mg BID fed (N = 3)): 0 (0.0) n (%) | Discontinuation reason: Disease progression ([10]; 480 mg BID fed (N = 3)): 0 (0.0) n (%) | Subjects who discontinued sotorasib ([10]; 480 mg BID fed (N = 3)): 2 (66.7) n (%) | Discontinuation reason: Adverse event ([10]; 720 mg QD fasted (N = 2)): 0 (0.0) n (%) | Discontinuation reason: Death ([10]; 720 mg QD fasted (N = 2)): 0 (0.0) n (%) | Discontinuation reason: Disease progression ([10]; 720 mg QD fasted (N = 2)): 2 (100.0) n (%) | Subjects who discontinued sotorasib ([10]; 720 mg QD fasted (N = 2)): 2 (100.0) n (%) | Discontinuation reason: Adverse event ([10]; 960 mg QD fasted (N = 46)): 9 (19.6) n (%) | Discontinuation reason: Death ([10]; 960 mg QD fasted (N = 46)): 0 (0.0) n (%) | Discontinuation reason: Disease progression ([10]; 960 mg QD fasted (N = 46)): 21 (45.7) n (%) | Subjects who discontinued sotorasib ([10]; 960 mg QD fasted (N = 46)): 32 (69.6) n (%) | Discontinuation reason: Adverse event ([10]; 960 mg QD fed (N = 2)): 1 (50.0) n (%) | Discontinuation reason: Death ([10]; 960 mg QD fed (N = 2)): 0 (0.0) n (%) | Discontinuation reason: Disease progression ([10]; 960 mg QD fed (N = 2)): 0 (0.0) n (%) | Subjects who discontinued sotorasib ([10]; 960 mg QD fed (N = 2)): 1 (50.0 n (%) | Discontinuation reason: Adverse event [10, 25]: 12 (21.4) n (%) | Discontinuation reason: Death [10, 25]: 0 (0.0) n (%) | Discontinuation reason: Disease progression [10, 25]: 25 (44.6) n (%) | Subjects who discontinued sotorasib [10, 25]: 39 (69.6) n (%)

C[C@H]1O[C@@H](O[C@H]2[C@@H](O)C[C@H](O[C@H]3[C@@H](O)C[C@H](O[C@H]4CC[C@@]5(C)[C@H](CC[C@@H]6[C@@H]5C[C@@H](O)[C@]5(C)[C@@H](C7=CC(=O)OC7)CC[C@]65O)C4)O[C@@H]3C)O[C@@H]2C)C[C@H](O)[C@@H]1O [digoxin]
Digoxin mean terminal half-life (t1/2) with sotorasib compared to alone [11, 26]: similar | Digoxin median time to maximal plasma concentration (tmax) with sotorasib compared to alone [11, 26]: similar | safety and tolerability ([11]; single doses of 0.5 mg digoxin alone or with 960 mg sotorasib): safe and well tolerated | increase of digoxin AUCinf [11, 27]: approximately 21% | increase of digoxin Cmax [11, 27]: ~91% | AUC(0-inf) [12]: 33.2 ng·h/mL | Cmax [12]: 1.9 ng/mL

Cc1ncc2n1-c1ccc(Cl)cc1C(c1ccccc1F)=NC2 [midazolam]
decrease of midazolam AUV [13]: 53% | decrease of midazolam Cmax [13]: 48%
